Results published in ChEMBL document CHEMBL5050861 (2021).
≈ marks a conversion by molar mass, not a printed value.

Key:
[1] = Inhibition of recombinant mouse GALK1 using ATP as substrate incubated for 1 hr and measured by Kinase-Glo assay
[2] = Kinetic aqueous solubility of the compound; format: physicochemical; conditions: buffer; read-out: Kinetic_solubility
[3] = Stability of compound in rat microsomes assessed as half-life; format: ADME, Microsome
[4] = Permeability of compound by PAMPA assay; format: ADME; conditions: read-out: permeability

SMILES | IC50 ([1]; read-out: IC50) | solubility kinetic [2] | half-life [3] | Papp [4] | IC50 [1]
CC1=C(C(=O)Nc2cc(C(=O)O)ccn2)C(c2ccc(N3CCCC3)cc2Cl)N=C(Nc2nc3ccc(F)cc3o2)N1 (centres undefined) | 10.9 µM | > 87 µg/mL | > 30 min | < 1 ×10⁻⁶ cm/s | 
COC(=O)c1ccnc(NC(=O)C2=C(C)NC(Nc3nc4ccc(F)cc4o3)=N[C@@H]2c2ccccc2Cl)c1 | 86.3 µM |  | 24.3 min | < 7.4 ×10⁻⁶ cm/s | 
COC(=O)c1ccnc(NC(=O)C2=C(C)NC(Nc3nc4ccc(F)cc4o3)=N[C@H]2c2ccccc2Cl)c1 | 4.32 µM |  | 30.9 min | < 21.9 ×10⁻⁶ cm/s | 
CC1=C(C(=O)Nc2ccc(O)cc2)C(c2ccccc2Cl)N=C(Nc2nc3ccccc3o2)N1 (centres undefined) | 9.68 µM |  | > 30 min | < 14.5 ×10⁻⁶ cm/s | 
CC1=C(C(=O)Nc2cc(C(=O)O)ccn2)C(c2ccc(-c3ccccc3)cc2Cl)N=C(Nc2nc3ccc(F)cc3o2)N1 (centres undefined) |  | < 1 µg/mL | > 30 min | < 4.9 ×10⁻⁶ cm/s | 
CC1=C(C(=O)Nc2cc(N(C)C)ccn2)C(c2ccc(C)cc2Cl)N=C(Nc2nc3cccc(N)c3o2)N1 (centres undefined) | 15.3 µM | 4.6 µg/mL (≈ 8.66 µM) | 11.7 min |  | 
COC(=O)c1ccccc1CNC(=O)C1=C(C)NC(Nc2nc3ccccc3o2)=NC1c1ccccc1Cl (centres undefined) | 4.32 µM | < 1 µg/mL | 1.74 min |  | 
CC1=C(C(=O)NCc2cnn(C(C)(C)C)c2)C(c2ccc(C)cc2Cl)N=C(Nc2nc3ccc(F)c(N)c3o2)N1 (centres undefined) | 4.32 µM | < 1 µg/mL | 14.4 min |  | 
CC1=C(C(=O)Nc2nncs2)C2(CCSCC2)N=C(Nc2nc3ccccc3o2)N1 | 24.3 µM | 3.5 µg/mL (≈ 7.93 µM) | > 30 min |  | 
CNC(=O)C1CC(=O)C2=C(C1)NC(Nc1nc3ccccc3o1)=NC2c1ccccc1Cl (centres undefined) | 6.85 µM | < 1 µg/mL | > 30 min |  | 
CC1=C(C(=O)Nc2cc(C(=O)O)ccn2)C(c2ccccc2Cl)N=C(Nc2nc3ccccc3o2)N1C (centres undefined) | 34.4 µM | > 76 µg/mL | > 30 min |  | 
CC1=C(C(=O)Nc2nncs2)C(c2nn(C)cc2Cl)N=C(Nc2nc3ccccc3o2)N1 (centres undefined) | 17.2 µM | 12.8 µg/mL (≈ 27.2 µM) | > 30 min |  | 
CC1=C(C(=O)NCc2cnn(C)c2)C(c2ccc(Cl)cc2Cl)N=C(Nc2nc3ccc(F)c(N)c3o2)N1 (centres undefined) | 1.93 µM | 5.9 µg/mL (≈ 10.9 µM) | > 30 min |  | 
CC1=C(C(=O)NCc2cnn(C)c2)C(c2ccccc2Cl)N=C(Nc2nc3ccccc3o2)N1 (centres undefined) | 12.2 µM | 24.2 µg/mL (≈ 50.8 µM) | 15.7 min |  | 
CC1=C(C(=O)Nc2nc(CO)cs2)C(c2ccccc2Cl)N=C(Nc2nc3ccccc3o2)N1 (centres undefined) | 19.3 µM | < 1 µg/mL | > 30 min |  | 
CC1=C(C(=O)Nc2cc(C(=O)O)ccn2)C(c2ccccc2Cl)N=C(Nc2nc3cccc([N+](=O)[O-])c3o2)N1 (centres undefined) | 38.5 µM | 7.3 µg/mL (≈ 13.3 µM) | > 30 min |  | 
CC1=C(C(=O)NCc2cnn(C)c2)C(c2ccc(C)cc2Cl)N=C(Nc2nc3cccnc3o2)N1 (centres undefined) |  | 4.8 µg/mL (≈ 9.78 µM) | 3.66 min |  | Not Active
CC1=C(C(=O)Nc2nncs2)C(c2ncccc2Cl)N=C(Nc2nc3ccccc3o2)N1 (centres undefined) | 19.3 µM | 10.6 µg/mL (≈ 22.7 µM) | > 30 min |  | 
COC(=O)c1cccc(CNC(=O)C2=C(C)NC(Nc3nc4ccccc4o3)=NC2c2ccccc2Cl)c1 (centres undefined) | 7.69 µM | < 1 µg/mL | 3.42 min |  | 
CC1=C(C(=O)Nc2ccc(C(=O)N3CCOCC3)cc2)C(c2ccccc2Cl)N=C(Nc2nc3ccccc3o2)N1 (centres undefined) | 21.7 µM | < 1 µg/mL | > 30 min |  | 
COC(=O)c1ccc(CNC(=O)C2=C(C)NC(Nc3nc4ccccc4o3)=NC2c2ccccc2Cl)cc1 (centres undefined) | 8.63 µM | < 1 µg/mL | 8.49 min |  | 
CC1=C(C(=O)Nc2cc(C(N)=O)ccn2)C(c2ccccc2Cl)N=C(Nc2nc3ccccc3o2)N1 (centres undefined) | 7.69 µM | < 1 µg/mL | > 30 min |  | 
COC(=O)c1ccc(NC(=O)C2=C(C)NC(Nc3nc4ccccc4o3)=NC2c2ccccc2Cl)cc1 (centres undefined) | 9.68 µM | < 1 µg/mL | 17.7 min |  | 

SMILES | IC50 ([1]; read-out: IC50) | solubility kinetic [2] | half-life [3] | Papp [4] | IC50 [1]
CC1=C(C(=O)Nc2nncs2)C(c2cccnc2Br)N=C(Nc2nc3ccccc3o2)N1 (centres undefined) | 19.3 µM | 11.1 µg/mL (≈ 21.7 µM) | > 30 min |  | 
COC(=O)c1ccc(NC(=O)C2=C(C)NC(Nc3nc4ccccc4o3)=NC2c2ccccc2Cl)cn1 (centres undefined) | 6.85 µM | < 1 µg/mL | 4.68 min |  | 
CCn1cc(CNC(=O)C2=C(C)NC(Nc3nc4ccc(F)c(N)c4o3)=N[C@@H]2c2ccc(C)cc2Cl)cn1 | 10.9 µM | < 1 µg/mL | 8.62 min |  | 
CC1=C(C(=O)Nc2nncs2)C(c2c(Br)cnn2C)N=C(Nc2nc3ccccc3o2)N1 (centres undefined) |  | 38.7 µg/mL (≈ 75.2 µM) | > 30 min |  | Not Active
O=C1NCCC2=C1C(c1ccccc1Cl)N=C(Nc1nc3ccccc3o1)N2 (centres undefined) | 21.7 µM | < 1 µg/mL | 27.1 min |  | 
CC1=C(C(=O)Nc2nncs2)C(c2cc(Cl)ccc2Cl)N=C(Nc2nc3ccccc3o2)N1 (centres undefined) | 10.9 µM | < 1 µg/mL | > 30 min |  | 
CNC(=O)c1ccnc(NC(=O)C2=C(C)NC(Nc3nc4ccccc4o3)=NC2c2ccccc2Cl)c1 (centres undefined) | 10.9 µM | < 1 µg/mL | > 30 min |  | 
CC1=C(C(=O)NCc2ccccc2O)C(c2ccccc2Cl)N=C(Nc2nc3ccccc3o2)N1 (centres undefined) | 10.9 µM |  | 5.19 min | < 19.3 ×10⁻⁶ cm/s | 
CCn1cc(CNC(=O)C2=C(C)NC(Nc3nc4cccc(N)c4o3)=NC2c2ccc(C)cc2Cl)cn1 (centres undefined) | 3.06 µM | 2.43 µg/mL (≈ 4.68 µM) | 11.3 min |  | 
CC1=C(C(=O)NCc2cnn(CC(F)(F)F)c2)C(c2ccc(C)cc2Cl)N=C(Nc2nc3ccc(F)c(N)c3o2)N1 (centres undefined) | 3.06 µM | 1.56 µg/mL (≈ 2.64 µM) | 18.7 min |  | 
CC1=C(C(=O)Nc2ccccc2F)C(c2ccccc2Cl)N=C(Nc2nc3ccccc3o2)N1 (centres undefined) | 9.68 µM | < 1 µg/mL | > 30 min |  | 
CCn1cc(CNC(=O)C2=C(C)NC(Nc3nc4ccc(F)c(N)c4o3)=NC2c2ccccc2Cl)cn1 (centres undefined) | 2.17 µM | 23.9 µg/mL (≈ 45.6 µM) | 17.7 min |  | 
CC1=C(C(=O)Nc2cc(C(=O)O)ccn2)C(c2ccc(C)cc2Cl)N=C(Nc2nc3cccc(N)c3o2)N1 (racemic) | 1.72 µM | > 78 µg/mL | > 30 min |  | 
CC1=C(C(=O)Nc2ccccc2Cl)C(c2ccccc2Cl)N=C(Nc2nc3ccccc3o2)N1 (centres undefined) |  | < 1 µg/mL | 28.7 min |  | Not Active
CC1=C(C(=O)Nc2cc(C(=O)O)ccc2F)C(c2ccccc2Cl)N=C(Nc2nc3ccccc3o2)N1 (centres undefined) | 10.9 µM | 25.4 µg/mL (≈ 48.9 µM) | > 30 min |  | 
CC1=C(C(=O)Nc2cccc(F)c2)C(c2ccccc2Cl)N=C(Nc2nc3ccccc3o2)N1 (centres undefined) | 12.2 µM | < 1 µg/mL | > 30 min |  | 
CC1=C(C(=O)NCc2ccc(CO)cc2)C(c2ccccc2Cl)N=C(Nc2nc3ccccc3o2)N1 (centres undefined) | 15.3 µM | < 1 µg/mL | 13.8 min |  | 
CC1=C(C(=O)Nc2nncs2)C(c2ncccc2Br)N=C(Nc2nc3ccccc3o2)N1 (centres undefined) | 6.85 µM | 3 µg/mL (≈ 5.87 µM) | > 30 min |  | 
CC1=C(C(=O)NCc2ccc(F)cc2)C(c2ccccc2Cl)N=C(Nc2nc3ccccc3o2)N1 (centres undefined) |  | < 1 µg/mL | 11.3 min |  | Not Active
O=C(Nc1nncs1)C1=C(C(F)(F)F)NC(Nc2nc3ccccc3o2)=NC1c1ccccc1Cl (centres undefined) | 17.2 µM | 21.9 µg/mL (≈ 42.1 µM) | > 30 min |  | 
CC1=C(C(=O)Nc2ccc(Cl)cn2)C(c2ccccc2Cl)N=C(Nc2nc3ccccc3o2)N1 (centres undefined) |  | < 1 µg/mL | 30.8 min |  | Not Active
CNCCNC(=O)C1=C(C)NC(Nc2nc3ccc(F)cc3o2)=NC1c1ccccc1Cl (centres undefined) | 6.11 µM | > 67 µg/mL |  | > 30 ×10⁻⁶ cm/s | 
CC1=C(C(=O)Nc2ccc(N(C)C)cc2)C(c2ccccc2Cl)N=C(Nc2nc3ccccc3o2)N1 (centres undefined) | 13.7 µM | < 1 µg/mL | 11.5 min |  | 
